Data from US20260176260A1, “DUAL RAF AND TUBULIN INHIBITORS AND METHODS OF USE THEREOF” (Deciphera Pharmaceuticals, LLC, priority 2023, published 2026).
Where two headings read alike, the source gives them in different places.

Experiments:
B-Raf kinase = target: T1, B-Raf kinase (Homo sapiens, UniProt P15056); experiment: Biochemical assay for B-Raf (coupled pyruvate kinase/lactate dehydrogenase); details: read-out: BRAF
T1 construct: purchased Sigma

C-Raf kinase = target: T2, C-Raf kinase (Homo sapiens, UniProt P04049, Y340D/Y341D); experiment: Biochemical assay for C-Raf (coupled pyruvate kinase/lactate dehydrogenase); details: read-out: CRAF
T2 construct: C-Raf residues 306-end; Y340D, Y341D with N-; purchased Sigma

MiaPaca-2 cells = experiment: MiaPaca-2 cell proliferation assay (resazurin); type: cell-based; details: read-out: MiaPaca-2
Pa16c cells = experiment: Pa16c cell proliferation assay (resazurin); type: cell-based; details: Table 2, inhibition of cell proliferation
Summary of the method: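 Pa16c cells, 750 per well in DMEM with 10% FBS, exposed to serially diluted compound in triplicate for 67-72 h at 37 °C. Resazurin then added for a further 18-24 h, fluorescence read at Ex 540/Em 600 nm, and IC50 calculated.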

[1] = system: tubulin polymerization in HCT-116 cells; experiment: Cellular tubulin polymerization assay (pellet/supernatant a-tubulin, HCT-116 cells); type: cell-based; details: Table 3, HCT-116 cells; read-out: Tubulin Cellular
Method: HCT-116 cells (catalog #CCL-247) are obtained from the American Type Culture Collect (ATCC, Manassas, VA). Briefly, cells are grown in McCoy's 5A supplemented with 10% characterized fetal bovine serum (Invitrogen, Carlsbad, CA) and 1% Penicillin/Streptomycin/L-Glutamine at 37° C., 5% CO2, and 95% humidity. Cells are expanded until reaching 70-95% confluency at which point they are sub-cultured or harvested for assay use. 450000 cells are added per well in 1500 μL complete growth medium in a tissue culture treated, 12-well plate. Plates are incubated for 18 to 24 h at 37° C., 5% CO2, and 95% humidity. At the end of the incubation, 2000 μL of base culture media is added to each well, followed by a serial dilution of compound. Plates are incubated for an additional 1 h at 37° C., 5% CO2, and 95% humidity. Lysates are generated by the addition of 100 μL Lysis and Microtubule Stabilization Buffer 1 (LMS01, Cytoskeleton Inc, Denver, CO) supplemented with GTP (BST06, Cytoskeleton Inc), ATP (BSA04, Cytoskeleton Inc), and Protease Inhibitor Cocktail Stock (PIC02, Cytoskeleton Inc). Cells are scraped off wells using a rubber cell scraper and collected in a clean 96-well plate. Lysates are centrifuged at 1000×g, 37° C. for 10 min and supernatant fraction is placed into an additional 96-well plate. The remaining pellet fraction is reconstituted in 100 μL LMS01 buffer and sonicated for 10 min. Pellet and Supernatant fractions are probed for a-tubulin via western blot analysis on the Jess System or equivalent (Bio-techne, Minneapolis, MN). Data is analyzed using Prism software (Graphpad, San Diego, CA) to calculate IC50 values.

[2] = Table 1, inhibition of biochemical activity
[3] = Homo sapiens, MIA PaCa-2, Table 2, inhibition of cell proliferation

Measured: IC50

T1 sequence (P15056 416-766): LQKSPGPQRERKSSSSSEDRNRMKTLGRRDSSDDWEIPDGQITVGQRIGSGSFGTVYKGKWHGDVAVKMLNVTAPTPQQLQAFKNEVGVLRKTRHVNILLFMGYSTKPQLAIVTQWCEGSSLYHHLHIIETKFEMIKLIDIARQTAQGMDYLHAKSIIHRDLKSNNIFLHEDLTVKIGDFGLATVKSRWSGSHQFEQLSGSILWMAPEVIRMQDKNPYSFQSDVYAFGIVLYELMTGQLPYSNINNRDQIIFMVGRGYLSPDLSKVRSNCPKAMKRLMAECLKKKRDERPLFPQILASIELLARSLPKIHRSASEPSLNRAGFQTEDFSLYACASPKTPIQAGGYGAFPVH
T2 sequence (P04049 307-648 Y340D/Y341D): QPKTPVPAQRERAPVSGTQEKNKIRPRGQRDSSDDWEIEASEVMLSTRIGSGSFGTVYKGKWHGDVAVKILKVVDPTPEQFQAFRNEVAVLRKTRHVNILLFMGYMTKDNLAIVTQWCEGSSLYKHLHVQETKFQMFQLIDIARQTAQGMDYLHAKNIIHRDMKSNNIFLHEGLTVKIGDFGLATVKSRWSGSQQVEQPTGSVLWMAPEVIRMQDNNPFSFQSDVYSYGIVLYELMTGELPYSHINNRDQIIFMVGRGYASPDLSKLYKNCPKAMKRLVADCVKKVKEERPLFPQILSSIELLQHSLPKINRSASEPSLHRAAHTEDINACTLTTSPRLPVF

CNC(=O)c1cc(-c2cc(-c3cc(NC(=O)c4cc(C(F)(F)F)cnn4)ccc3C)cc(C)n2)ccn1 [Example 2, N,6-dimethyl-4-(2-methyl-5-(5-(trifluoromethyl)pyridazine-3-carboxamido)phenyl)-[2,4′-bipyridine]-2′-carboxamide]
0.1 to 0.5 µM: B-Raf kinase; [2] | B-Raf kinase; Table 3 | MiaPaca-2 cells; [3] | MiaPaca-2 cells; Table 3 | [1]
< 0.1 µM: C-Raf kinase; [2] | C-Raf kinase; Table 3
0.5 to 1 µM: Pa16c cells

CNC(=O)c1cc(-c2cc(-c3cc(NC(=O)c4cc(C(F)(F)F)cnn4)ccc3C)ccn2)ccn1 [Example 9]
< 0.1 µM: B-Raf kinase; [2] | B-Raf kinase; Table 3 | C-Raf kinase; [2] | C-Raf kinase; Table 3
0.1 to 0.5 µM: MiaPaca-2 cells; [3] | MiaPaca-2 cells; Table 3 | Pa16c cells | [1]

CNC(=O)c1cc(-c2cc(-c3cc(NC(=O)c4cc(C(F)(F)F)cnn4)ccc3C)cc(NCCO)n2)ccn1 [Example 18]
< 0.1 µM: B-Raf kinase; [2] | B-Raf kinase; Table 3 | C-Raf kinase; [2] | C-Raf kinase; Table 3 | MiaPaca-2 cells; [3] | MiaPaca-2 cells; Table 3 | Pa16c cells | [1]

CNC(=O)c1cc(-c2cc(-c3cc(NC(=O)c4cc(C5CC5)cnn4)ccc3C)ccn2)ccn1 [Example 26]
< 0.1 µM: B-Raf kinase; [2] | B-Raf kinase; Table 3 | C-Raf kinase; [2] | C-Raf kinase; Table 3
0.1 to 0.5 µM: MiaPaca-2 cells; [3] | MiaPaca-2 cells; Table 3 | Pa16c cells | [1]

CNC(=O)c1cc(-c2cc(-c3cc(NC(=O)c4cc(C5CC5)cnn4)ccc3C)cc(NCCO)n2)ccn1 [Example 27]
< 0.1 µM: B-Raf kinase; [2] | B-Raf kinase; Table 3 | C-Raf kinase; [2] | C-Raf kinase; Table 3 | Pa16c cells
0.1 to 0.5 µM: MiaPaca-2 cells; [3] | MiaPaca-2 cells; Table 3 | [1]
